Broadly, the Ki is the dissociation constant of the complex between target and ligand, obtained from inhibition or displacement. As usually defined, the EC50 is the concentration needed to bring the measured effect to its halfway point.

Where two headings read alike, the source gives them in different places. Positions of bridges follow the written chain, without caps; N, C: chain ends. Non-standard residues stand in square brackets, D forms with d. Residues, ends and D or L forms follow the SMILES beside them. Phe(4-CN) = N#Cc1ccc(C[C@H](N)C(=O)O)cc1; 1Nal = N[C@@H](Cc1cccc2ccccc12)C(=O)O; Cit = NC(=O)NCCC[C@H](N)C(=O)O; Api = NC1(C(=O)O)CCNCC1

This note sets out measurements from patent publication US20200223889A1, “Bicyclic Compounds Capable of Binding to Melanocortin 4 Receptor” (Novo Nordisk A/S, priority 2017, published 2020).

Assay [1] deals with T1, human MC4R (Homo sapiens, UniProt P32245).
T1 construct: expressed in transfected cells
T1 sequence (P32245 whole entry): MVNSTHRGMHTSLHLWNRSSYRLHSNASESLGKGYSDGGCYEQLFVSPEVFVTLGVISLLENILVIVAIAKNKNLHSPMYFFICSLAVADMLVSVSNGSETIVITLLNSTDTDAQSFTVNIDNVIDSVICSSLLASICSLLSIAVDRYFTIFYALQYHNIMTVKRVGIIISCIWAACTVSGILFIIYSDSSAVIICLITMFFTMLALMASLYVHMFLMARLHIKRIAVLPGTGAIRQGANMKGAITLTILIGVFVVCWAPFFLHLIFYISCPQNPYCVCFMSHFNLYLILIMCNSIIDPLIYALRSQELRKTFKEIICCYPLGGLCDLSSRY
Briefly: 125NDP-α-MSH competitive binding to membranes of BHK cells expressing human MC4 receptor (filtration assay). The procedure: In Vitro ^125NDP-α-MSH Binding to Recombinant BHK Cells Expressing Human MC4 Receptor (Filtration Assay)
In order to assess the binding affinity of the selected compounds for the human MC4R competitive binding assays was performed with radiolabeled NDP-alpha MSH (^125NDP-α-MSH).
The assay was performed in 96-well filterplates (Unifilter) using BHK cells stably expressing the human MC4 receptor.
The BHK cell membranes were prepared from frozen or fresh cells that were homogenized in 20 mM HEPES pH 7.1, 5 mM MgCl2, 1 mg/ml bacitracin (buffer 1) and centrifuged at 15000 rpm at 4° C., 10 min in a Sorvall RC 5B plus, SS-34 rotor. The supernatant was discarded, and the pellets were re-suspended in buffer 1, homogenized and centrifuged two more times. The final pellets were re-suspended in buffer 1 and the protein concentration was measured and adjusted with buffer 1 to 5 mg/ml and the membrane preparation was kept at −80° C. until assay. The assay was run on a dilution of this cell membrane suspension without any further preparation. The suspension was diluted to give maximally 10% specific binding, i.e. to approx. 50-100 fold dilution, optimized after each membrane preparation. The assay was performed in a total volume of 200 μl: 50 μl of cell suspension, 50 μl of ^125NDP-α-MSH (apx. […] in final concentration), 50 μl of test compound and 50 μl binding buffer were mixed and incubated for 2 h at 25° C. (binding buffer: 25 mM HEPES, pH 7.0, 1 mM CaCl2), 1 mM MgSO4, 1 mM EGTA, 0.005% Tween™ 20 and 0.1% HSA or, alternatively, 0.1% ovalbumin (Sigma; catalogue No. A-5503)). Test compounds were dissolved in 100% DMSO and diluted in binding buffer in a dose range from 1 μM to 0.001 nM. Radiolabelled ligand and membranes were diluted in binding buffer. The incubation was stopped by dilution with 8×100 μl ice-cold 0.9% NaCl. The radioactivity retained on the filters was counted using a Packard Topcounter. The data were analysed by non-linear regression analysis of binding curves, using the Windows™ program GraphPad™ Prism (GraphPad Software, USA).

The target in assay [2] is T1, human MC4R. Nature of the assay: Functional cAMP assay (CisBio HTRF) in BHK cells expressing human MC4R. It counts as cell-based. Particulars: for MC1R/MC4R cAMP EC50 ratio: MC1R cAMP EC50 divided by MC4R cAMP EC50. The procedure, abridged:
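Compound working solutions, 10-fold dilutions from 2 μM at twice final strength, in buffer containing 1 mM IBMX, were incubated 30 min at 25 °C with BHK cells stably carrying human MC4R or MC1R. Accumulated cAMP was then detected by competitive HTRF after 1 h at 25 °C and fitted by non-linear regression.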
(Cyclic AMP is a second messenger, typically raised through Gs and lowered through Gi signalling.)

Setting [3] is: human MC4R, BHK cell membranes, 125NDP-α-MSH radioligand, read-out: MC4R binding Ki.
Setting [4] is: BHK cells expressing human MC4R, '>' = highest dose used with no response, read-out: MC4R cAMP EC50.

In the case of `N=C(N)NCCC[C@@H]1NC(=O)[C@@H](Cc2ccccc2)NC(=O)[C@H](Cc2c[nH]cn2)NC(=O)C2(CCNCC2)NC(=O)[C@@H]2CSSC[C@H](NC(=O)[C@H](Cc3c[nH]c4ccccc34)NC1=O)C(=O)NC1(CCNCC1)C(=O)N[C@@H](Cc1c[nH]cn1)C(=O)N[C@H](Cc1ccccc1)C(=O)N[C@@H](CCCNC(=N)N)C(=O)N[C@@H](Cc1c[nH]c3ccccc13)C(=O)N2` [Chem. 47, c[c[Cys-ACP-His-D-Phe-Arg-Trp- Cys]-ACP-His-D-Phe-Arg-Trp]] (cyclo([Api]H[dF]RWC[Api]H[dF]RWC); disulfide 6-12), on human MC4R [1], the affinity, expressed as Ki, was 0.72 nM. Further, at human MC4R [2], the midpoint of the response, the EC50, lay at 0.12 nM and the “MC1R/MC4R cAMP EC50 ratio” value was 23.
Turning to `C[C@@H]1NC(=O)[C@@H]2CSSC[C@H](NC(=O)[C@H](Cc3c[nH]c4ccccc34)NC(=O)[C@H](CCCNC(N)=O)NC(=O)[C@@H](Cc3ccccc3)NC(=O)[C@H](Cc3c[nH]cn3)NC1=O)C(=O)N[C@@H](C)C(=O)N[C@@H](CCCCN)C(=O)N[C@@H](CCCCN)C(=O)N[C@@H](CCCCN)C(=O)N[C@@H](Cc1c[nH]c3ccccc13)C(=O)N2` [Chem. 48, c[c[Cys-Ala-His-D-Phe-Cit-Trp-Cys]- Ala-Lys-Lys-Lys-Trp]] (cyclo(AH[dF][Cit]WCAKKKWC); disulfide 6-12), the Ki on human MC4R [1] (setting [3]) worked out at 0.15 nM. For the same molecule, the EC50 at human MC4R [2] (setting [4]) is 0.06 nM. For the same molecule, the “MC1R/MC4R cAMP EC50 ratio” value on human MC4R [2] worked out at 152.
The like results for `N=C(N)NCCC[C@@H]1NC(=O)[C@@H]2CSSC[C@H](NC(=O)[C@H](Cc3c[nH]c4ccccc34)NC(=O)[C@H](CCCNC(N)=O)NC(=O)[C@@H](Cc3ccccc3)NC(=O)[C@H](Cc3c[nH]cn3)NC1=O)C(=O)N[C@@H](CCCNC(=N)N)C(=O)N[C@@H](Cc1c[nH]cn1)C(=O)N[C@H](Cc1ccccc1)C(=O)N[C@@H](CCCNC(N)=O)C(=O)N[C@@H](Cc1c[nH]c3ccccc13)C(=O)N2` [Chem. 54, c[c[Cys-Arg-His-D-Phe-Cit-Trp-Cys]- Arg-His-D-Phe-Cit-Trp]] (cyclo(CRH[dF][Cit]WCRH[dF][Cit]W); disulfide 1-7) were, in that order, 0.21 nM, 0.04 nM and 7.
For `C[C@@H]1NC(=O)[C@@H]2CSSC[C@H](NC(=O)[C@H](Cc3c[nH]c4ccccc34)NC(=O)[C@H](CCC(N)=O)NC(=O)[C@@H](Cc3ccccc3)NC(=O)[C@H](Cc3c[nH]cn3)NC1=O)C(=O)N[C@@H](C)C(=O)N[C@@H](CCCCN)C(=O)N[C@H](CCCCN)C(=O)N[C@@H](CCCCN)C(=O)N[C@@H](Cc1c[nH]c3ccccc13)C(=O)N2` [Chem. 57, c[c[Cys-Ala-His-D-Phe-Gln-Trp-Cys]- Ala-Lys-D-Lys-Lys-Trp]] (cyclo(AH[dF]QWCAK[dK]KWC); disulfide 6-12) the same measures were 0.21 nM, 0.19 nM and 55.
For `CC(=O)NCCCC[C@@H]1NC(=O)[C@@H](Cc2ccccc2)NC(=O)[C@H](Cc2c[nH]cn2)NC(=O)[C@H](C)NC(=O)[C@@H]2CSSC[C@H](NC(=O)[C@H](Cc3c[nH]c4ccccc34)NC1=O)C(=O)N[C@@H](C)C(=O)N[C@@H](CCCCN)C(=O)N[C@H](CCCCN)C(=O)N[C@@H](CCCCN)C(=O)N[C@@H](Cc1c[nH]c3ccccc13)C(=O)N2` [Chem. 58, c[c[Cys-Ala-His-D-Phe-AcLys-Trp- Cys]-Ala-Lys-D-Lys-Lys-Trp]] (cyclo(AH[dF]K(Ac)WCAK[dK]KWC); disulfide 6-12) the same measures were 0.09 nM, 0.11 nM and 36.
`C[C@@H]1NC(=O)[C@@H]2CSSC[C@H](NC(=O)[C@H](Cc3c[nH]c4ccccc34)NC(=O)[C@H](Cc3c[nH]cn3)NC(=O)[C@@H](Cc3ccccc3)NC(=O)[C@H](Cc3c[nH]cn3)NC1=O)C(=O)N[C@@H](C)C(=O)N[C@@H](CCCCN)C(=O)N[C@@H](CCCCN)C(=O)N[C@@H](CCCCN)C(=O)N[C@@H](Cc1c[nH]c3ccccc13)C(=O)N2` [Chem. 60, c[c[Cys-Ala-His-D-Phe-His-Trp-Cys]- Ala-Lys-Lys-Lys-Trp]] (cyclo(AH[dF]HWCAKKKWC); disulfide 6-12): on human MC4R [1] (setting [3]), the Ki is 0.1 nM. At human MC4R [2] (setting [4]), the EC50 is 0.17 nM. The “MC1R/MC4R cAMP EC50 ratio” value on human MC4R [2] amounted to 313.
The like results for `C[C@@H]1NC(=O)[C@@H]2CSSC(C)(C)[C@H](NC(=O)[C@H](Cc3c[nH]c4ccccc34)NC(=O)[C@H](CCCNC(=N)N)NC(=O)[C@@H](Cc3ccccc3)NC(=O)[C@H](Cc3c[nH]cn3)NC1=O)C(=O)N[C@@H](C)C(=O)N[C@@H](Cc1c[nH]cn1)C(=O)N[C@H](Cc1ccccc1)C(=O)N[C@@H](CCCNC(=N)N)C(=O)N[C@@H](Cc1c[nH]c3ccccc13)C(=O)N2` [Chem. 63, c[c[Pen-Ala-His-D-Phe-Arg-Trp-Cys]- Ala-His-D-Phe-Arg-Trp]] were, in that order, 0.08 nM, 0.02 nM and 42.
The like results for `C[C@@H]1NC(=O)[C@@H]2CSSC[C@H](NC(=O)[C@H](Cc3cccc4ccccc34)NC(=O)[C@H](CCCNC(=N)N)NC(=O)[C@@H](Cc3ccccc3)NC(=O)[C@H](Cc3c[nH]cn3)NC1=O)C(=O)N[C@@H](C)C(=O)N[C@@H](CCCCN)C(=O)N[C@@H](CCCCN)C(=O)N[C@@H](CCCCN)C(=O)N[C@@H](Cc1c[nH]c3ccccc13)C(=O)N2` [Chem. 64, c[c[Cys-Ala-His-D-Phe-Arg-1-Nal- Cys]-Ala-Lys-Lys-Lys-Trp]] (cyclo([1Nal]CAKKKWCAH[dF]R); disulfide 2-8) were, in that order, 0.09 nM, 0.03 nM and 141.
As to `C[C@@H]1NC(=O)[C@@H]2CSSC[C@H](NC(=O)[C@H](Cc3ccc(C#N)cc3)NC(=O)[C@H](CCCNC(=N)N)NC(=O)[C@@H](Cc3ccccc3)NC(=O)[C@H](Cc3c[nH]cn3)NC1=O)C(=O)N[C@@H](C)C(=O)N[C@@H](CCCCN)C(=O)N[C@@H](CCCCN)C(=O)N[C@@H](CCCCN)C(=O)N[C@@H](Cc1c[nH]c3ccccc13)C(=O)N2` [Chem. 65, c[c[Cys-Ala-His-D-Phe-Arg-4-CN- Phe-Cys]-Ala-Lys-Lys-Lys-Trp]] (cyclo(AH[dF]R[Phe(4-CN)]CAKKKWC); disulfide 6-12), the Ki at human MC4R [1] (setting [3]) was 0.47 nM. The EC50 on human MC4R [2] (setting [4]) was 0.42 nM. Moreover, at human MC4R [2], the “MC1R/MC4R cAMP EC50 ratio” value was determined as 26.
The like results for `C[C@@H]1NC(=O)[C@@H]2CSSC[C@H](NC(=O)[C@H](CCCNC(=N)N)NC(=O)[C@H](CCCCN)NC(=O)[C@H](CCCCN)NC(=O)[C@H](CCCCN)NC1=O)C(=O)N1CCC[C@H]1C(=O)N[C@@H](Cc1c[nH]cn1)C(=O)N[C@H](Cc1ccccc1)C(=O)N[C@@H](Cc1c[nH]cn1)C(=O)N[C@@H](Cc1c[nH]c3ccccc13)C(=O)N2` [Chem. 71, c[c[Cys-Pro-His-D-Phe-His-Trp-Cys]- Ala-Lys-Lys-Lys-Arg]] (cyclo(AKKKRCPH[dF]HWC); disulfide 6-12) were, in that order, 0.05 nM, 0.08 nM and 415.
For `C[C@@H]1NC(=O)[C@@H]2CSSC[C@H](NC(=O)[C@H](CCCNC(=N)N)NC(=O)[C@H](CCCCN)NC(=O)[C@H](CCCCN)NC(=O)[C@H](CCCCN)NC1=O)C(=O)N1CCC[C@H]1C(=O)N[C@@H](Cc1c[nH]cn1)C(=O)N[C@H](Cc1ccccc1)C(=O)N[C@@H](CCCNC(N)=O)C(=O)N[C@@H](Cc1c[nH]c3ccccc13)C(=O)N2` [Chem. 72, c[c[Cys-Pro-His-D-Phe-Cit-Trp-Cys]- Ala-Lys-Lys-Lys-Arg]] (cyclo(AKKKRCPH[dF][Cit]WC); disulfide 6-12) the same measures were 0.03 nM, 0.03 nM and 195.
